We go through 2 molecules from patent publication US11020364B2, “Palmitoleic acid for use in inhibiting the attachment of sea lice to fish” (INSTITUT DE RECHERCHE EN SEMIOCHIMIE ET ETHOLOGIE APPLIQUEE, priority 2014, dated 2021).

In assay [1] the test system is Lepeophtheirus salmonis copepodids. The assay is described as follows: Infestation test with isomer in Atlantic salmon (Example 7). In kind it is in vivo. On the procedure: The aim of this example was to test the efficacy of an isomer of Sea Lice Copepodids Attachment Inhibiting Semiochemical (SCAIS) as an inhibitor of the infestation behavior of Lepoephtheirus salmonis copepodids in Atlantic salmon (Salmon salar). The test was realized using 4 rounds of 4 fish, eight of which were treated with trans-9-hexadecenoic acid and the other eight used as a control. For each round 4 fish were tested; i.e., 2 treated fish and 2 controls. To be included in the study the smolts had to have a body weight between 70 g and 150 g and the copepodits had to be able to swim actively. If the smolts had disease, loss of scales, fin damage, cataracts and/or swam abnormally they were not used in the study. If the copepodits were immobile after stimulation, they were rejected from the study. For each round 4 fish are caught and introduced into four 2-liter flat beakers supplied with 1.75 liters of seawater. The treated fish had 6 ppm of trans-9-hexadecenoic acid placed in their seawater, while in the control only seawater was used. 0.52 ml of the treatment or control were directly injected into 1.75 liters of seawater. The 4 fish were bathed in this solution for 10 minutes. The fish were then transferred to another 3.5 liter beaker supplied with 3.5 liters of seawater treated either with 3 ppm of trans-9-hexadecenoic acid or a control of simply seawater. 0.52 ml of the treatment of control were directly injected into 3.5 liters of seawater. The flat beakers were equipped with a valve such that 0.875 liters were emptied from the flat beaker. When the fish were introduced into the beakers, the valves were turned on. Ten minutes after the valves were turned on, the beakers were supplied with either 0.875 liters of the treatment of trans-9-hexadecenoic acid or 0.875 liters of the control of seawater. Ten minutes thereafter (20 minutes after the introduction of the fish into the beakers), the valves were turned off and 60 copepodits per fish were injected into each flat beaker. Five minutes later (25 minutes after introduction of the fish into the beakers), the valves were turned on. Ten minutes later (35 minutes after introduction of the fish into the beakers) each beaker was supplied with either 0.875 liters of trans-9-hexadecenoic acid or 0.875 liters of the control of seawater. Ten minutes later (45 minutes after introduction of the fish into the beakers) each beaker was supplied with either 0.875 liters of trans-9-hexadecenoic acid or 0.875 liters of the control of seawater. […] The content of plastic bag was then emptied above a filter and the number of copepodits was then counted on each filter using a magnifying glass. […] Data was analyzed using 9.4 SAS software (2002-2012 by SAS Institute Inc., Cary, N.C., U.S.A.). […]

Assay [2] has as its system copepodits. The assay is described as follows: Infestation test of smolts with copepodits (Examples 4 to 6). In kind it is in vivo, Lepeophtheirus salmonis. The method, then: This test exposed young salmons (smolts weighting almost 70 grams) to a high density group of copepodits during 45 minutes in a testing device, which consisted of four 23 cm diameter tanks, with an outflow. […] Light can modify the behavior of the copepodits which have phototropism. Each tank received a smolt for 45 min (FIG. 6). The copepodits were first fished out of their rearing tank and counted on a stereomicroscope. Four infesting doses of copepodits, containing 60 copepodits each, were prepared for each run of the test. The smolts were placed in a tank containing the treatment solution (or the placebo), which concentration in active substance was 6 ppm. This bath lasted for 10 minutes. Then the smolts were placed in a tank where they were kept in 3 ppm of the same treatment (product or placebo) used in the previous bath to begin the testing. The purpose of this process was to prevent any dramatic decrease in the concentration of the active product on their skin. During the first 10 minutes, the outflow was open and the tent was closed. At that moment each tank was refilled to reach the initial volume of oxygenated liquid (refilled with the same solution, product or placebo). The outflow was then closed for 5 minutes and the infesting dose was introduced in the tank. Then the outflow was opened and stayed opened for 30 minutes with a refill every 10 minutes (without opening the tent). After 45 minutes of exposure to the copepodits, the smolts were euthanized by administration of a toxic dose of anaesthetic agent Benzoake, at a concentration of 10 times the normal dose of 30 to 40 mg/l. The dead fish were placed in a plastic bag in which they were rubbed and rinsed with sea water. The skin of the fish was rubbed with a metallic spoon, to remove all the possible copepodits attached on it, as shown in FIG. 7. Each fish was washed thus detaching all of the copepodits and shells from the fish skin. The collected liquid from the washing was filtered to count the parasites. The copepodits were counted on the filter to obtain the number of copepodites on the outer body of the fish. The gills were then dissected to count the number of copepodits on the gills. The first phase of the test compared the number of copepodits on the body and on the gills, between replicas of the test. The purpose of this phase was to validate the test and measure its standard deviation. The second phase of the test compared the number of copepodits (abbreviated cops in the Tables below) on the body and on the gills, between treated smolts and reference smolts, as a control, which were just bathed in seawater plus ethyl alcohol for the five solutions. The same test as in Example 4 was repeated using palmitoleic acid. […] The same experiment was undertaken as described in Example 4.

Assay [3] has as its system Lepeophtheirus salmonis copepodids. In words: Infestation test with water dispersible tablets (Example 9). In kind it is in vivo. The source says: The purpose of this example was to assess the efficacy of the sea lice copepodits attachment inhibiting semiochemical (SCAIS), continuously released by water dispersible tablets, on the infestation behaviour of Lepeophtheirus salmonis copepodids in Atlantic salmon smolts (Salmo salar).
72 Atlantic salmon (Salmo salar) in the smolt stage having a weight around 90 g and of the origin SALMAR® (Daugstad 6392 Vikebukt, Norway) were used in this study. 2,400 copepodits used were from the species Lepeophtheirus salmonis origin Ilab® (Bergen, Norway).
Infestation tests were measured at 1 hour, 24 hours, 72 hours and 120 hours after application of the treatment. Blood tests were undertaken at 0 hours, 1 hour, 24 hours, 72 hours and 120 hours after treatment.
[…] were used and the study was conducted in two parallel groups of Atlantic salmon smolts, one group was treated with the sea lice copepodits attachment inhibiting semiochemical tablets of cis-9-hexdecenoic acid, which were placed in a string bag half way down where the water resides in the rearing tank and the other group was the control using only ethyl alcohol.
The infestation test, carried out at 1 hour, 24 hours, 72 hours and 120 hours after application of the treatment was performed in the following manner. […]

Where [4] appears, read: 8 treated fish, 6 ppm then 3 ppm.
Setting [5] is: mean of replicas, 6 ppm bath then 3 ppm, 60 copepodits, 45 minutes.

Several values for one entry are separate records, joined by “and”; a condition that tells them apart may be missing. Equal values may be shown once.

With `CCCCCC/C=C/CCCCCCCC(=O)O` [SCAIS^iso, trans-9-hexadecenoic acid], in assay [1] (setting [4]), the “Nb copepodits, Mean” value is listed as 10 and the “Nb copepodits, Median” value is given as 9. Also, in assay [1] (single fish, 6 ppm bath 10 minutes then 3 ppm, 60 copepodits per fish), the Number of copepodits was 8. In addition, the “effect on number of copepodits attached in Atlantic salmons (in words)” value in assay [1] (vs seawater control) is “significant effect on the number of copepodits attached”.

On to `CCCCCC/C=C\CCCCCCCC(=O)O` [palmitoleic acid, cis-9-hexadecenoic acid], for which, in assay [2] (Example 6, Treated salmons), the “Number of copepodits attached in the gills, Mean” value stood at 2.375; the “Number of copepodits attached in the gills, Median” value was found to be 2.5; the “Number of copepodits attached to body, Mean” value stood at 6.25; the “Number of copepodits attached to body, Median” value is listed as 6. Also, in assay [2] (Example 6, vs control salmons and control cods), the “reduction in number of copepodits attached on the body of the salmon (in words)” value is “highly significant reduction”. In addition, the “effect on attachment of copepodits on smolts (in words)” value in assay [2] (Examples 4 and 5, vs reference smolts in seawater plus ethyl alcohol) is listed as “important reduction of the infestation”. Also, in assay [2] (setting [5]), the “Cop on body, mean” value worked out at 8.0 and the “Cop on gills, mean” value is 2.8. Further, in assay [2] (single replica (smolt), 6 ppm bath 10 minutes then 3 ppm, 60 copepodits, 45 minutes), the Cop on body was 6 and 11 and 7 and 8. In assay [3] (treatment group, water dispersible tablets in rearing tank, 60 copepodits per fish, preliminary analysis), the “mean number of copepodits attached” value is recorded as 10.6. For the same molecule, in assay [3] (water dispersible tablets, 60 copepodits per fish in closed 3.5 liter tank), the “protection in infestation tests (in words)” value was “significant protection”.
